Experimental findings from patent US8202868B2, “4-piperazinyl-pyrimidine compounds suitable for treating disorders that respond to modulation of the dopamine D3 receptor” (Abbott GmbH & Co. KG, priority 2004, dated 2012) are described below.

Test [1] has as its target T1, human dopamine D2L receptors (long isoform) (Homo sapiens, UniProt P14416).
T1 construct: expressed in transfected cells; host or cells: HEK-293
Nature of the test: Dopamine D2L receptor binding, [125I] iodospiperone displacement. The method, then: (§1) The substance to be tested was either dissolved in methanol/Chremophor® (BASF-AG) or in dimethyl sulfoxide and then diluted with water to the desired concentration.
(§2) Each assay mixture was run in triplicate.
The incubation buffer contained 50 mM tris, 120 mM NaCl, 5 mM KCl, 2 mM CaCl2, 2 mM MgCl2 and 0.1% bovine serum albumin. The buffer was adjusted to pH 7.4 with HCl.
(§3) After having been incubated at 25° C. for 60 minutes, the assay mixtures were filtered through a Whatman GF/B glass fiber filter under vacuum using a cell collecting device. The filters were transferred to scintillation viols using a filter transfer system. After 4 ml of Ultima Gold® (Packard) have been added, the samples were shaken for one hour and the radioactivity was then counted in a Beta-Counter (Packard, Tricarb 2000 or 2200CA). The cpm values were converted into dpm using a standard quench series and the program belonging to the instrument.
(§4) The inhibition curves were analyzed by means of iterative nonlinear regression analysis using the Statistical Analysis System (SAS) which is similar to the “LIGAND” program described by Munson and Rodbard.

For test [2], the target named is T2, human dopamine D3 receptors (Homo sapiens, UniProt P35462).
T2 construct: expressed in transfected cells; host or cells: HEK-293
T2 sequence (P35462 whole entry): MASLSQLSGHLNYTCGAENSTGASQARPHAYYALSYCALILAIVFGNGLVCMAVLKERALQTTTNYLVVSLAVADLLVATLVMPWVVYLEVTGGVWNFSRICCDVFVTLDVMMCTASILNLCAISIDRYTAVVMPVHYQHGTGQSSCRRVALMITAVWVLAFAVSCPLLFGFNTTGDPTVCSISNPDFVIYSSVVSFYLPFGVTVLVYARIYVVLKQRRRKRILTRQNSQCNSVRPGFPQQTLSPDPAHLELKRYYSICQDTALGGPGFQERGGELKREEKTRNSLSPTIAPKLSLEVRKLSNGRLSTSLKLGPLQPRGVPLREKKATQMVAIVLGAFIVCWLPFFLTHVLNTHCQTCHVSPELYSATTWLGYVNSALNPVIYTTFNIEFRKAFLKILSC
Nature of the test: Dopamine D3 receptor binding, [125I]-iodosulpride displacement. The note with it: for Ki: membranes of HEK-293 cells, 0.1 nM [125I]-iodosulpride, 25° C., 60 minutes; for Ki(D2)/Ki(D3): selectivity ratio of receptor binding constants. The method, then:
as §1, §2
The incubation buffer contained 50 mM tris, 120 mM NaCl, 5 mM KCl, 2 mM CaCl2, 2 mM MgCl2 and 0.1% bovine serum albumin, 10 μM quinolone and 0.1% ascorbic acid (prepared fresh daily). The buffer was adjusted to pH 7.4 with HCl.
as §3, §4

Setting [3] is: membranes of HEK-293 cells, 0.01 nM [125I] iodospiperone, 25° C., 60 minutes, read-out: Ki(D2).

Read-outs that look alike come from different tables or passages of the source.

T1 sequence (P14416 whole entry, canonical isoform): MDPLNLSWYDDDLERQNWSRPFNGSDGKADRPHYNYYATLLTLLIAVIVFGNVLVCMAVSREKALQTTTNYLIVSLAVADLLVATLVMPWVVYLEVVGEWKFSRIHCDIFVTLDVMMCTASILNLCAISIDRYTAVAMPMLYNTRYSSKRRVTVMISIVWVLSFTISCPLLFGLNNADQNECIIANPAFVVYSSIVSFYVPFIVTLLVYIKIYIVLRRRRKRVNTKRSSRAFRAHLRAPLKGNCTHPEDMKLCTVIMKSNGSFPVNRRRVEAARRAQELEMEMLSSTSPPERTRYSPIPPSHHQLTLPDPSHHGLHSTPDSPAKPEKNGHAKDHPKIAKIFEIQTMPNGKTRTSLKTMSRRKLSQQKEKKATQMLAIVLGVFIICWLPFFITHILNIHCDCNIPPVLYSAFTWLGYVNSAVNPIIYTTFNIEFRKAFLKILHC

Usually Ki stands for a dissociation constant, usually derived from enzyme kinetics or from competition with a known ligand. On to “2-tert-Butyl-4-cyclobutyl-6-{4-[3-(1-methyl-1H-tetrazol-5-ylsulfanyl)-propyl]-piperazin-1-yl}-pyrimidine [Example 9]”, for which the inhibition constant (Ki) in test [1] (setting [3]) came out at 0.432 µM. In test [2], the inhibition constant Ki stood at 0.0041 µM and the “Ki(D2)/Ki(D3)” value is 106.
The compound `CC(C)(C)c1nc(C2CCC2)cc(N2CCN(CCCSc3nncs3)CC2)n1` [Example 1, 2-tert-Butyl-4-cyclobutyl-6-{4-[3-([1,3,4]thiadiazol-2-ylsulfanyl)-pronyl]-piperazin-1-yl}-pyrimidine] showed a Ki in test [1] of 0.049 µM. For the same compound, in test [2], the Ki stood at 0.0009 µM and the “Ki(D2)/Ki(D3)” value is 54.
Regarding `Cc1nnc(SCCCN2CCN(c3cc(C4CCC4)nc(C(C)(C)C)n3)CC2)s1.Cl` [Example 2, 2-tert-Butyl-4-cyclobutyl-6-{4-[3-(5-methyl-[1,3,4]thiadiazol-2-ylsulfanyl)-propyl]-piperazin-1-yl}-pyrimidine hydrochloride], the Ki in test [1] (setting [3]) was 0.135 µM. Also, in test [2], affinity was put at a Ki of 0.0014 µM and the “Ki(D2)/Ki(D3)” value came to 96.
Turning to `CC(C)(C)c1nc(C2CCC2)cc(N2CCN(CCCSc3ncccn3)CC2)n1.Cl` [Example 4, 2-tert-Butyl-4-cyclobutyl-6-{4-[3-(pyrimidin-2-ylsulfanyl)-propyl]-piperazin-1-yl}-pyrimidine hydrochloride], the results for the inhibition constant Ki in test [1] (setting [3]) and in test [2] were 0.113 µM and 0.0009 µM, respectively. The “Ki(D2)/Ki(D3)” value in test [2] was 127.
On the same counts, the results for `CC(C)(C)c1nc(C2CCC2)cc(N2CCN(CCCCNC(=O)c3ccc(F)cc3)CC2)n1.Cl` [Example 10, N-{4-[4-(2-tert-Butyl-6-cyclobutyl-pyrimidin-4-yl)-piperazin-1-yl]-butyl}-4-fluoro-benzamide hydrochloride] are 0.087 µM, 0.0005 µM and 163.
The matching figures for `CC(C)(C)c1nc(C2CCC2)cc(N2CCN(CCCCNC(=O)c3ccncc3)CC2)n1.Cl` [Example 11, N-{4-[4-(2-tert-Butyl-6-cyclobutyl-pyrimidin-4-yl)-piperazin-1-yl]-butyl}-isonicotinamide hydrochloride]: 0.137 µM, 0.0009 µM and 150.
As to `CC(C)(C)c1nc(C2CCC2)cc(N2CCN(CCCCNC(=O)c3cccnc3)CC2)n1` [Example 12, N-{4-[4-(2-tert-Butyl-6-cyclobutyl-pyrimidin-4-yl)-piperazin-1-yl]-butyl}-nicotinamide], the values for the inhibition constant Ki in test [1] (setting [3]) and in test [2] were 0.115 µM and 0.001 µM, respectively. In addition, the “Ki(D2)/Ki(D3)” value in test [2] stood at 121.
On the same counts, the results for `CC(C)(C)c1nc(C2CCC2)cc(N2CCN(CCCOc3ccnc(O)n3)CC2)n1` [Example 24, 4-{3-[4-(2-tert-Butyl-6-cyclobutyl-pyrimidin-4-yl)-piperazin-1-yl]-propoxy}-pyrimidin-2-ol] are 0.112 µM, 0.0012 µM and 93.
With `CC(C)(C)c1nc(C2CCC2)cc(N2CCN(CCCOc3nccc(O)n3)CC2)n1` [Example 26, 2-{3-[4-(2-tert-Butyl-6-cyclobutyl-pyrimidin-4-yl)-piperazin-1-yl]-propoxy}-pyrimidin-4-ol], the Ki in test [1] (setting [3]) came out at 0.337 µM; in test [2] it was 0.0048 µM. Besides, the “Ki(D2)/Ki(D3)” value in test [2] turned out to be 70.
The matching figures for `CC(C)(C)c1nc(C2CCC2)cc(N2CCN(CCCOc3ncccn3)CC2)n1.Cl` [Example 27, 2-tert-Butyl-4-cyclobutyl-6-{4-[3-(pyrimidin-2-yloxy)-propyl]-piperazin-1-yl}-pyrimidine hydrochloride]: 0.222 µM, 0.0021 µM and 107.
`C[C@@H](COc1ncccn1)CN1CCN(c2cc(C3CCC3)nc(C(C)(C)C)n2)CC1.Cl` [Example 28, (R)-2-tert-Butyl-4-cyclobutyl-6-{4-[2-methyl-3-(pyrimidin-2-yloxy)-propyl]-piperazin-1-yl}-pyrimidine hydrochloride]: in test [1] (setting [3]), the Ki is 0.296 µM. Also, in test [2], the inhibitory constant (Ki) turned out to be 0.0038 µM and the “Ki(D2)/Ki(D3)” value was determined as 78.
The matching figures for `C[C@@H](COc1ccnc(O)n1)CN1CCN(c2cc(C3CCC3)nc(C(C)(C)C)n2)CC1` [Example 31, (R)-4-{3-[4-(2-tert-Butyl-6-cyclobutyl-pyrimidin-4-yl)-piperazin-1-yl]-2-methyl-propoxy}-pyrimidin-2-ol]: 0.143 µM, 0.002 µM and 72.
For `CC(C)(C)c1nc(C2CCC2)cc(N2CCN(CCCCc3nccc(O)n3)CC2)n1` [Example 34, 2-{4-[4-(2-tert-Butyl-6-cyclobutyl-pyrimidin-4-yl)-piperazin-1-yl]-butyl}-pyrimidin-4-ol], in test [1] (setting [3]), the Ki is 0.077 µM. Further, in test [2], the Ki amounted to 0.0011 µM and the “Ki(D2)/Ki(D3)” value is 71.
Turning to `Cl.Cn1nnnc1SCCCN1CCN(c2cc(C3CC3)nc(C(C)(C)C)n2)CC1` [Example 35, 2-tert-Butyl-4-cyclopropyl-6-{4-[3-(1-methyl-1H-tetrazol-5-ylsulfanyl)-propyl]-piperazin-1-yl}-pyrimidine hydrochloride], the inhibition constant (Ki) in test [1] (setting [3]) was 0.587 µM; in test [2], 0.0038 µM. In addition, the “Ki(D2)/Ki(D3)” value in test [2] came to 154.
As to `CC(C)(C)c1nc(C2CC2)cc(N2CCN(CCCOc3nccc(O)n3)CC2)n1` [Example 37, 2-{3-[4-(2-tert-Butyl-6-cyclopropyl-pyrimidin-4-yl)-piperazin-1-yl]-propoxy}-pyrimidin-4-ol], in test [1] (setting [3]), the Ki turned out to be 0.359 µM. In test [2], the affinity corresponds to a Ki of 0.0071 µM and the “Ki(D2)/Ki(D3)” value is listed as 51.
For the compound `Cn1cnnc1SCCCN1CCN(c2cc(C3CCC3)nc(C(C)(C)C)n2)CC1` [Example 41, 2-tert-Butyl-4-{4-[3-(4-methyl-4H-[1,2,4]triazol-3-ylsulfanyl)-propyl]-piperazin-1-yl}-6-cyclobutylpyrimidine], the Ki was determined as 0.405 µM in test [1] (setting [3]) and 0.0013 µM in test [2]. Besides, in test [2], the “Ki(D2)/Ki(D3)” value amounted to 314.
On the same counts, the results for `Cn1c(SCCCN2CCN(c3cc(C4CCC4)nc(C(C)(C)C)n3)CC2)nnc1C(F)(F)F` [Example 42, 2-tert-Butyl-4-{4-[3-(4-methyl-5-trifluoromethyl-4H-[1,2,4]triazol-3-ylsulfanyl)-propyl]-piperazin-1-yl}-6-cyclobutyl-pyrimidine] are 0.405 µM, 0.002 µM and 203.
The matching figures for `Cc1nnc(SCCCN2CCN(c3cc(C4CCC4)nc(C(C)(C)C)n3)CC2)n1C.O=C(O)/C=C/C(=O)O` [Example 43, 2-tert-Butyl-4-{4-[3-(4-methyl-5-methyl-4H-[1,2,4]triazol-3-ylsulfanyl)-propyl]-piperazin-1-yl}-6-cyclobutyl-pyrimidine fumarate]: 0.305 µM, 0.0015 µM and 210.
On the same counts, the results for `Cn1c(SCCCN2CCN(c3cc(C4CCC4)nc(C(C)(C)C)n3)CC2)nnc1C1CC1.O=C(O)/C=C/C(=O)O` [Example 44, 2-tert-Butyl-4-{4-[3-(4-methyl-5-cyclopropyl-4H-[1,2,4]triazol-3-ylsulfanyl)-propyl]-piperazin-1-yl}-6-cyclobutyl-pyrimidine fumarate] are 0.142 µM, 0.0006 µM and 250.
`Cc1nnc(SCCCN2CCN(c3cc(C4CC4)nc(C(C)(C)C)n3)CC2)n1C.Cl` [Example 45, 2-tert-Butyl-4-{4-[3-(4-methyl-5-methyl-4H-[1,2,4]triazol-3-ylsulfanyl)-propyl]-piperazin-1-yl}-6-cyclopropyl-pyrimidine hydrochloride]: in test [1] (setting [3]), the inhibitory constant (Ki) is 0.272 µM. In addition, in test [2], the inhibition constant Ki turned out to be 0.0012 µM and the “Ki(D2)/Ki(D3)” value is 234.
As to `Cl.Cn1c(SCCCN2CCN(c3cc(C4CC4)nc(C(C)(C)C)n3)CC2)nnc1C(F)(F)F` [Example 47, 2-tert-Butyl-4-{4-[3-(4-methyl-5-trifluoromethyl-4H-[1,2,4]triazol-3-ylsulfanyl)-propyl]-piperazin-1-yl}-6-cyclopropyl-pyrimidine hydrochloride], the Ki in test [1] (setting [3]) is 0.484 µM. Moreover, in test [2], the affinity, expressed as Ki, was 0.0019 µM and the “Ki(D2)/Ki(D3)” value is reported as 253.
For the compound `C[C@@H](COc1nccc(O)n1)CN1CCN(c2cc(C3CCC3)nc(C(C)(C)C)n2)CC1` [Example 52], in test [1] (setting [3]), the Ki was determined as 0.926 µM. In addition, in test [2], the affinity corresponds to a Ki of 0.0112 µM and the “Ki(D2)/Ki(D3)” value worked out at 82.
The matching figures for `Cn1cnnc1SCCCN1CCN(c2cc(C3(C)CC3)nc(C(C)(C)C)n2)CC1` [Example 53, 2-tert-butyl-4-{4-[3-(4-methyl-4H-[1,2,4]triazol-3-ylsulfanyl)-propyl]-piperazin-1-yl}-6-(1-methyl)cyclopropyl-pyrimidine]: 0.058 µM, 0.0012 µM and 50.
